Data from ChEMBL document CHEMBL4041516, “SAR study of 5-alkynyl substituted quinazolin-4(3H)-ones as phosphoinositide 3-kinase delta (PI3Kδ) inhibitors” (Eur J Med Chem, 2017).

Assays:
SU-DHL-6 = assay: Antiproliferative activity against human SUDHL6 cells measured after 72 hrs by alamar blue assay; assay type: functional, cell-based; conditions: SU-DHL-6, 72 h
[1] = target: T1, Phosphatidylinositol 4,5-bisphosphate 3-kinase catalytic subunit delta isoform (Homo sapiens, UniProt O00329); assay: Inhibition of PI3Kdelta (unknown origin) using PIP2 as substrate measured after 30 mins by HTRF assay
T1 sequence (O00329 whole entry): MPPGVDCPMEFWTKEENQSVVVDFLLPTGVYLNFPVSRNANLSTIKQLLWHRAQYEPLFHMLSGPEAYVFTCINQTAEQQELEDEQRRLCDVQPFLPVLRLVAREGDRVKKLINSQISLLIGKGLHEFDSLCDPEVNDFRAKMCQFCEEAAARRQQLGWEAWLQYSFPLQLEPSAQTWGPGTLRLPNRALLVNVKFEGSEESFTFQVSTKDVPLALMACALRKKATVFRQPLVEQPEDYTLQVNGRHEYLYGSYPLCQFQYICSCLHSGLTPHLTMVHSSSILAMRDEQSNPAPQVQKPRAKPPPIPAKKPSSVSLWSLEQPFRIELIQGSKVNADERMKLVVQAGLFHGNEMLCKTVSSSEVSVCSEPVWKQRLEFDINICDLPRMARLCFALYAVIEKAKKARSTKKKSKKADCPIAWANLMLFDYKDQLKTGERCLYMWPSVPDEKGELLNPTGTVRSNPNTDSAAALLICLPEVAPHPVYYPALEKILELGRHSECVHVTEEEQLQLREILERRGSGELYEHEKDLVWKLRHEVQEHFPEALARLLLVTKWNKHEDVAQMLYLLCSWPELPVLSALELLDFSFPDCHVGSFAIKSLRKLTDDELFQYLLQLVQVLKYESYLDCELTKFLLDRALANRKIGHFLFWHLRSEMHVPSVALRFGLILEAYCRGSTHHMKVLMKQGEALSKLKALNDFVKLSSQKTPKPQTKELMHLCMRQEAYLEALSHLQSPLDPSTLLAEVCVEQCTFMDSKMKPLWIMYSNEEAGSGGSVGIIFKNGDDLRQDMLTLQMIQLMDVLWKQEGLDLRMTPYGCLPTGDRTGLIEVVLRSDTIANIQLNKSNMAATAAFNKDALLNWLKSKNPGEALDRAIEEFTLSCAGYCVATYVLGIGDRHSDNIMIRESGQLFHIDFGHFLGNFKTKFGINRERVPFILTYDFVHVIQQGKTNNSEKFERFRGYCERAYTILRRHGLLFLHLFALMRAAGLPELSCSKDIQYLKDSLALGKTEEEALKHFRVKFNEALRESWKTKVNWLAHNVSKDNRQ

[2] = target: T2, Voltage-gated inwardly rectifying potassium channel KCNH2 (Homo sapiens, UniProt Q12809); assay: Inhibition of human ERG
Pfeiffer = assay: Antiproliferative activity against human Pfeiffer cells measured after 72 hrs by alamar blue assay; assay type: functional, cell-based
SU-DHL10 = assay: Antiproliferative activity against human SU-DHL10 cells measured after 72 hrs by alamar blue assay; assay type: functional, cell-based; conditions: SU-DHL10, 72 h
[3] = target: Phosphatidylinositol 4,5-bisphosphate 3-kinase catalytic subunit alpha isoform (Homo sapiens, UniProt P42336); assay: Inhibition of PI3Kalpha (unknown origin) using PIP2 as substrate measured after 30 mins by HTRF assay
[4] = Antiproliferative activity against human WSU-DLCL2 cells measured after 72 hrs by alamar blue assay; assay type: functional, cell-based; conditions: WSUDLCL2, 72 h
[5] = target: Phosphatidylinositol 4,5-bisphosphate 3-kinase catalytic subunit beta isoform (Homo sapiens, UniProt P42338); assay: Inhibition of PI3Kbeta (unknown origin) using PIP2 as substrate measured after 30 mins by HTRF assay
HT = assay: Antiproliferative activity against human HT cells measured after 72 hrs by alamar blue assay; assay type: functional, cell-based
hERG (KCNH2) = hERG (KCNH2) (Homo sapiens, UniProt Q12809); assay: (§1) Inhibition of human ERG at 40 uM relative to control
[6] = target: Phosphatidylinositol 4,5-bisphosphate 3-kinase catalytic subunit gamma isoform (Homo sapiens, UniProt P48736); assay: Inhibition of PI3Kgamma (unknown origin) using PIP2 as substrate measured after 30 mins by HTRF assay
SUD4 = assay: Antiproliferative activity against human SU-DHL4 cells measured after 72 hrs by alamar blue assay; assay type: functional, cell-based; conditions: SU-DHL-4, 72 h
MOLT-4 = assay: Antiproliferative activity against human MOLT4 cells measured after 72 hrs by alamar blue assay; assay type: functional, cell-based; conditions: MOLT-4, 72 h
NAMALVA = assay: Antiproliferative activity against human NAMALWA cells measured after 72 hrs by alamar blue assay; assay type: functional, cell-based
KARPAS-422 = assay: Antiproliferative activity against human KARPAS422 cells measured after 72 hrs by alamar blue assay; assay type: functional, cell-based; conditions: KARPAS-422, 72 h
SU-DHL-1 = assay: Antiproliferative activity against human SU-DHL1 cells measured after 72 hrs by alamar blue assay; assay type: functional, cell-based; conditions: SU-DHL-1, 72 h
[7] = target: T2, Voltage-gated inwardly rectifying potassium channel KCNH2; assay: as §1; conditions: 40 µM

T2 sequence (Q12809 whole entry): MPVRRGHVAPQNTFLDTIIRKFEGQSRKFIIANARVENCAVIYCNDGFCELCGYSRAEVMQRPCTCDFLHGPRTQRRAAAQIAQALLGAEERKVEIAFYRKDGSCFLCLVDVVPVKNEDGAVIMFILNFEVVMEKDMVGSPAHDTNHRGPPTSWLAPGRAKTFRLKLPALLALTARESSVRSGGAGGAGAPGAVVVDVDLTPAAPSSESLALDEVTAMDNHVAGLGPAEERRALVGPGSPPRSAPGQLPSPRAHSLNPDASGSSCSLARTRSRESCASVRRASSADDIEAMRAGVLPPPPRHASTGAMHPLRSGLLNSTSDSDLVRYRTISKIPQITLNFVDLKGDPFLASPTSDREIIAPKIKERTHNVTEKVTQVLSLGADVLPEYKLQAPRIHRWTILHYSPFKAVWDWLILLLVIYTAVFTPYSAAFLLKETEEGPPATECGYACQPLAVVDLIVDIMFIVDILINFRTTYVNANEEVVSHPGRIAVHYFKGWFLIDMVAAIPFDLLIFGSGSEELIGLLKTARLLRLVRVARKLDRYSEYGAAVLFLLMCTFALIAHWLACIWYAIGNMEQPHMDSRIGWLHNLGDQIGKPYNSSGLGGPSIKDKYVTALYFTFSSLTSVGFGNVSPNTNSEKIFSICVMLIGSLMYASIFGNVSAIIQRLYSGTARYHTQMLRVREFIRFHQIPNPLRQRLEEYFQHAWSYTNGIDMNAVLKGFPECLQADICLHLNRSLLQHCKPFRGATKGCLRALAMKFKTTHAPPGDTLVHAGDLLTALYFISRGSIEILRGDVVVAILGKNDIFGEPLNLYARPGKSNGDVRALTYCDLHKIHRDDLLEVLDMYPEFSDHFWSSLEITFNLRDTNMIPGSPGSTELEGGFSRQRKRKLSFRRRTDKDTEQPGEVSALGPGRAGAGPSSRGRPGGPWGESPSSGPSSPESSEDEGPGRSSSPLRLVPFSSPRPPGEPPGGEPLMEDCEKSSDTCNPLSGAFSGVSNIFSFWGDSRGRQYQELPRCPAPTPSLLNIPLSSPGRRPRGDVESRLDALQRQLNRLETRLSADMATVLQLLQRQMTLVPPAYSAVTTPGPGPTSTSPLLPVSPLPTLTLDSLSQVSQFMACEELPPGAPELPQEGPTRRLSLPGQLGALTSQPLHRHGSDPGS
Sequence of Phosphatidylinositol 4,5-bisphosphate 3-kinase catalytic subunit alpha isoform (P42336 whole entry, canonical isoform): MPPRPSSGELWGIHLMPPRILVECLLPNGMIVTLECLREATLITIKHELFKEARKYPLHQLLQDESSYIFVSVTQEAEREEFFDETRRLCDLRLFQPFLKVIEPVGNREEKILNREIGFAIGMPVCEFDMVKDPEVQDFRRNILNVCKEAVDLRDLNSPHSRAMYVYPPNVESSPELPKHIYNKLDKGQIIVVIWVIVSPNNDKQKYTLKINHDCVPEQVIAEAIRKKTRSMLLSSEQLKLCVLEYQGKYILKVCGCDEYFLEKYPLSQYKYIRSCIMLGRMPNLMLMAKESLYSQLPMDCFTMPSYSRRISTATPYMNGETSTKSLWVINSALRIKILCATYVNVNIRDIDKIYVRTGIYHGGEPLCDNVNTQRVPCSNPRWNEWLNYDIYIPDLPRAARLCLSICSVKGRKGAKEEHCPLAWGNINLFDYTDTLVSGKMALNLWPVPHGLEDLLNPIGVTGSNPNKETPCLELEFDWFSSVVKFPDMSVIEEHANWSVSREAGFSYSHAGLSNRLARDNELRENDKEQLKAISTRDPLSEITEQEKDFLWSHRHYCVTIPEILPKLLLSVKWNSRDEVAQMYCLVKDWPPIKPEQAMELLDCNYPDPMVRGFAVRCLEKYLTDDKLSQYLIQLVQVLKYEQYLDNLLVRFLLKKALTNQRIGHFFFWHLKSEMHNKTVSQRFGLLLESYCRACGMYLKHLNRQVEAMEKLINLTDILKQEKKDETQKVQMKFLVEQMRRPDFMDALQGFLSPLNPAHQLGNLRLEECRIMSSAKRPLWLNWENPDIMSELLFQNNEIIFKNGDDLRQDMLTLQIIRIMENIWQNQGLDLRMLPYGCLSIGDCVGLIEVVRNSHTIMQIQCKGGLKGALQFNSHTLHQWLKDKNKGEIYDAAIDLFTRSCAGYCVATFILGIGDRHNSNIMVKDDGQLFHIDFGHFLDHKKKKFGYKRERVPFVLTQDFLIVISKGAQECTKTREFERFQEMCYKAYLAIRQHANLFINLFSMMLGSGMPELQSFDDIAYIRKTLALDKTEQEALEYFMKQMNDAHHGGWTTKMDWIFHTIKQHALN
Sequence of Phosphatidylinositol 4,5-bisphosphate 3-kinase catalytic subunit gamma isoform (P48736 whole entry, canonical isoform): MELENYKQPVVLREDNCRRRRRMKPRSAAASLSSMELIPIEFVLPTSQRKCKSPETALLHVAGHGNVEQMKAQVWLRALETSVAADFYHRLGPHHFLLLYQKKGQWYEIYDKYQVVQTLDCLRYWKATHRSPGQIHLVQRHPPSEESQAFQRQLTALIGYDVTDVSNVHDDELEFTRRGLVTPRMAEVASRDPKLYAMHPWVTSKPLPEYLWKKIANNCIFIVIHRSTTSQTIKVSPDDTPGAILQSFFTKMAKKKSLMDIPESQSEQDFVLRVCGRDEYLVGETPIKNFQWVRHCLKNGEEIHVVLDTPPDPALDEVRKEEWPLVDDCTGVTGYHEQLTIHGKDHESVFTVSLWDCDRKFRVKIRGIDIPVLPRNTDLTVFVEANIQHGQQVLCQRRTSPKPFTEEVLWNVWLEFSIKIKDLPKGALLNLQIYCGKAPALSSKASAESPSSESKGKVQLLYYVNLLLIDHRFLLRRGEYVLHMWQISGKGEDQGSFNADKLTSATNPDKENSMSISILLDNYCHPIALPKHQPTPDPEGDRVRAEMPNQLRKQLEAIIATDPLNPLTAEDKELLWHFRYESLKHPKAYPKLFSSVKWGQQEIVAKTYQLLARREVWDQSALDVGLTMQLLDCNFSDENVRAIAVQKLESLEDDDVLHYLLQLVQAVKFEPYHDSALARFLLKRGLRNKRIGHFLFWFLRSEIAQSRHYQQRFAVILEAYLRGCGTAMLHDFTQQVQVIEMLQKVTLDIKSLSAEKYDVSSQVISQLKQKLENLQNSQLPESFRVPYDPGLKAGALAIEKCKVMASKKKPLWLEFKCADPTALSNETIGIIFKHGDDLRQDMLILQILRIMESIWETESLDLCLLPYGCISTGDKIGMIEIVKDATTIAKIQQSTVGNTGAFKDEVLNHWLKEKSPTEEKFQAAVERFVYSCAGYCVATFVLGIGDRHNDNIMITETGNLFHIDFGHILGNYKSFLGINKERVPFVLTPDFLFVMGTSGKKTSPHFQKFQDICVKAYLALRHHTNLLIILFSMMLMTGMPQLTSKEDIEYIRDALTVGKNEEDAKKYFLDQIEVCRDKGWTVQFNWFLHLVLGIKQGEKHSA
Sequence of Phosphatidylinositol 4,5-bisphosphate 3-kinase catalytic subunit beta isoform (P42338 whole entry, canonical isoform): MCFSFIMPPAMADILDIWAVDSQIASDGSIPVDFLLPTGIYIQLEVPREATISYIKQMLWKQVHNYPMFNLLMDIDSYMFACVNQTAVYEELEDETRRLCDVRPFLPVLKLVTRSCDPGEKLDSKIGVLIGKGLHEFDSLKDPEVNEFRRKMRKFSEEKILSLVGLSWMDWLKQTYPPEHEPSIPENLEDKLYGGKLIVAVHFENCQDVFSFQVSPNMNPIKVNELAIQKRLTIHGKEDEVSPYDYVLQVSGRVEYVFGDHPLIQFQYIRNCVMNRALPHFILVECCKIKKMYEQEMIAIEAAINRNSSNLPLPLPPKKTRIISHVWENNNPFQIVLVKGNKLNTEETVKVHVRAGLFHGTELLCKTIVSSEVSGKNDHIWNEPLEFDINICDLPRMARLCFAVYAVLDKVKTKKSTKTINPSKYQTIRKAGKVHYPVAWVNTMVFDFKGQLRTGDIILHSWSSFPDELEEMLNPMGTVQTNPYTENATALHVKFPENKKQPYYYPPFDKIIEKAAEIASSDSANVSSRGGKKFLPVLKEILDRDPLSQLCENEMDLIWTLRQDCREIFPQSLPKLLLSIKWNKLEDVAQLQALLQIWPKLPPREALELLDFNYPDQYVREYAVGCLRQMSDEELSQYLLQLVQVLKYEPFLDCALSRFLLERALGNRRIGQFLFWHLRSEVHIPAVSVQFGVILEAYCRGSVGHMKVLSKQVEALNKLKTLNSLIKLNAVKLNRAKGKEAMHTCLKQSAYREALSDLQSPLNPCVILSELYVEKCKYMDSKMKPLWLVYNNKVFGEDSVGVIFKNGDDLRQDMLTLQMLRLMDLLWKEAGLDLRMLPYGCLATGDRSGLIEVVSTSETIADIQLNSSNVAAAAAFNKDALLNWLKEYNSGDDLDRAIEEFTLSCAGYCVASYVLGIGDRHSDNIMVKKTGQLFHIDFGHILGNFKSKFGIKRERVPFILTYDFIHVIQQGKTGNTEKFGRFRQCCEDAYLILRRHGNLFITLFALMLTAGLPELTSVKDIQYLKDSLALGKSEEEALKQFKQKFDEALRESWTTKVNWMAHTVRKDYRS

Compound	IC50 (SU-DHL-6) [nM]	IC50 [1] [nM]	also measured
CC[C@H](Nc1nc(N)nc(N)c1C#N)c1nc2cccc(C#CCCCO)c2c(=O)n1-c1ccccc1	26.8	12.2	–
CC(C)N1CCN(Cc2cnc(C#Cc3cccc4nc([C@@H]5CCCN5c5ncnc(N)c5C#N)n(-c5ccccc5)c(=O)c34)s2)CC1	1150	> 300	–
N#Cc1c(N)ncnc1N1CCC[C@H]1c1nc2cccc(C#CC(=O)N3CCOCC3)c2c(=O)n1-c1ccccc1	1120	70	–
N#Cc1c(N)ncnc1N1CCC[C@H]1c1nc2cccc(C#CCCCC(=O)N3CCCC3)c2c(=O)n1-c1ccccc1	99	11.5	–
Cc1nc(N)nc(N2CC[C@H]2c2nc3cccc(C#CCCCC(=O)N4CCOCC4)c3c(=O)n2-c2ccccc2)c1C#N	640	16.8	–
N#Cc1c(N)ncnc1N1CCC[C@H]1c1nc2cccc(C#CCN3CCC(C4CC(F)C4)CC3)c2c(=O)n1-c1ccccc1 (some centres not stated)	526	78.1	–
Nc1nc(N)nc(N2CCC[C@H]2c2nc3cccc(C#CCCCC(=O)N4CCOCC4)c3c(=O)n2-c2ccccc2)n1	> 10000	> 300	–
N#Cc1c(N)ncnc1N1CCC[C@H]1c1nc2cccc(C#CCCCC(=O)N3CCOCC3)c2c(=O)n1-c1ccccc1	27.6	13.8	IC50 ([2]; read-out: IC50): 31700 nM; IC50 (Pfeiffer): 7200 nM; IC50 (SU-DHL10): 2400 nM; IC50 [3]: 3110 nM; IC50 [4]: > 10000 nM; IC50 [5]: 1650 nM; IC50 (HT): > 10000 nM; inhibition at 40 µM (hERG (KCNH2)): 61.9%; IC50 [6]: 291 nM; IC50 (SUD4): 3900 nM; IC50 (MOLT-4): > 10000 nM; IC50 (NAMALVA): 6000 nM; IC50 (KARPAS-422): 11600 nM; IC50 (SU-DHL-1): > 10000 nM
N#Cc1c(N)ncnc1N1CCC[C@H]1c1nc2cccc(C#CCN3CCC(C4CC(F)(F)C4)CC3)c2c(=O)n1-c1ccccc1	724	141	–
CC(C)(C)N1CCN(CC#Cc2cccc3nc([C@@H]4CCCN4c4ncnc(N)c4C#N)n(-c4ccccc4)c(=O)c23)CC1	282	43	–
N#Cc1c(N)ncnc1N1CC[C@H]1c1nc2cccc(C#CCCCC(=O)N3CCOCC3)c2c(=O)n1-c1ccccc1	7320	620	–
N#Cc1c(N)ncnc1N1CCC[C@H]1c1nc2cccc(C#Cc3cccs3)c2c(=O)n1-c1ccccc1	1680	41.5	–
CC(C)(F)CN1CCN(CC#Cc2cccc3nc([C@@H]4CCCN4c4ncnc(N)c4C#N)n(-c4ccccc4)c(=O)c23)CC1	2820	170	–
N#Cc1c(N)ncnc1N1CCC[C@H]1c1nc2cccc(C#Cc3cccc(F)c3)c2c(=O)n1-c1ccccc1	3860	> 300	–
CC[C@H](Nc1ncnc2[nH]cnc12)c1nc2cccc(F)c2c(=O)n1-c1ccccc1 [IDELALISIB]	118	–	IC50 (Pfeiffer): 6800 nM; IC50 (SU-DHL10): > 10000 nM; IC50 [4]: > 10000 nM; IC50 (HT): > 10000 nM; IC50 (MOLT-4): > 10000 nM; IC50 (NAMALVA): > 10000 nM; IC50 (KARPAS-422): 8100 nM; IC50 (SU-DHL-1): > 10000 nM
Cc1nc(N)nc(N2CCC[C@H]2c2nc3cccc(C#CCCCC(=O)N4CCOCC4)c3c(=O)n2-c2ccccc2)c1C#N	178	11.8	–
N#Cc1c(N)ncnc1N1CCC[C@H]1c1nc2cccc(C#Cc3ccccn3)c2c(=O)n1-c1ccccc1	1900	> 300	–

Compound	IC50 (SU-DHL-6) [nM]	IC50 [1] [nM]	also measured
Cc1nc(N)nc(N2CC[C@H]2c2nc3cccc(C#CCCCC(=O)N4CCCC4)c3c(=O)n2-c2ccccc2)c1C#N	862	19.6	–
CC[C@H](Nc1ncnc2[nH]cnc12)c1nc2cccc(C#CCCCC(=O)N3CCOCC3)c2c(=O)n1-c1ccccc1	1180	110	–
N#Cc1c(N)ncnc1N1CCC[C@H]1c1nc2cccc(C#CCN3CCOCC3)c2c(=O)n1-c1ccccc1	1160	107	–
CC[C@H](Nc1ncnc(N)c1C#N)c1nc2cccc(C#CCCCC(=O)N3CCCC3)c2c(=O)n1-c1ccccc1	1900	112	–
CC(C)(CO)N1CCN(CC#Cc2cccc3nc([C@@H]4CCCN4c4ncnc(N)c4C#N)n(-c4ccccc4)c(=O)c23)CC1	339	67.1	–
CC(COC(F)F)N1CCN(CC#Cc2cccc3nc([C@@H]4CCCN4c4ncnc(N)c4C#N)n(-c4ccccc4)c(=O)c23)CC1 (some centres not stated)	2000	188	–
N#Cc1c(N)ncnc1N1CCC[C@H]1c1nc2cccc(C#CCN3CCN(CC4CC4)CC3)c2c(=O)n1-c1ccccc1	705	107	–
CC(C)(C)N1CCN(C(=O)C#Cc2cccc3nc([C@@H]4CCCN4c4ncnc(N)c4C#N)n(-c4ccccc4)c(=O)c23)CC1	216	97.7	–
N#Cc1c(N)ncnc1N1CC[C@H]1c1nc2cccc(C#CCCCC(=O)N3CCCC3)c2c(=O)n1-c1ccccc1	7840	440	–
Cc1nc(N)nc(N2CCC[C@H]2c2nc3cccc(C#CCCCC(=O)N4CCCC4)c3c(=O)n2-c2ccccc2)c1C#N	58.9	7.1	IC50 [2]: Nd(Insoluble); IC50 (Pfeiffer): 4400 nM; IC50 (SU-DHL10): 4500 nM; IC50 [3]: 1480 nM; IC50 [4]: > 10000 nM; IC50 [5]: 2020 nM; IC50 (HT): > 10000 nM; inhibition (INH) [7]: Nd(Insoluble); IC50 [6]: 132 nM; IC50 (SUD4): 4000 nM; IC50 (MOLT-4): 6700 nM; IC50 (NAMALVA): 5900 nM; IC50 (KARPAS-422): 4300 nM; IC50 (SU-DHL-1): > 10000 nM
CC(F)CN1CCN(CC#Cc2cccc3nc([C@@H]4CCCN4c4ncnc(N)c4C#N)n(-c4ccccc4)c(=O)c23)CC1 (some centres not stated)	1410	80.2	–
CCOC(=O)c1cnc(C#Cc2cccc3nc([C@@H]4CCCN4c4ncnc(N)c4C#N)n(-c4ccccc4)c(=O)c23)s1	> 10000	> 300	–
C=CC(O)C(C)(C)N1CCN(CC#Cc2cccc3nc([C@@H]4CCCN4c4ncnc(N)c4C#N)n(-c4ccccc4)c(=O)c23)CC1 (some centres not stated)	372	60.2	–
CC[C@H](Nc1ncnc(N)c1C#N)c1nc2cccc(C#CCCCC(=O)N3CCOCC3)c2c(=O)n1-c1ccccc1	1430	96.8	–
N#Cc1c(N)ncnc1N1CCC[C@H]1c1nc2cccc(C#Cc3cccnc3)c2c(=O)n1-c1ccccc1	1730	> 300	–
N#Cc1c(N)ncnc1N1CCC[C@H]1c1nc2cccc(C#CCN3C[C@@H]4C[C@H]3CN4)c2c(=O)n1-c1ccccc1	1260	135	–
CC[C@H](Nc1nc(N)nc(N)c1C#N)c1nc2cccc(C#CCCCC(=O)N3CCCC3)c2c(=O)n1-c1ccccc1	37.2	6.73	IC50 ([2]; read-out: IC50): > 40000 nM; IC50 (Pfeiffer): 2200 nM; IC50 (SU-DHL10): 1800 nM; IC50 [3]: 624 nM; IC50 [4]: 6800 nM; IC50 [5]: 530 nM; IC50 (HT): 7900 nM; inhibition at 40 µM (hERG (KCNH2)): 39.3%; IC50 [6]: 125 nM; IC50 (SUD4): 1700 nM; IC50 (MOLT-4): 6700 nM; IC50 (NAMALVA): 6200 nM; IC50 (KARPAS-422): 2100 nM; IC50 (SU-DHL-1): 4900 nM
